The subject of series [1] is cysteine- or lysine-containing peptide. As to the kind of experiment: In chemico skin sensitization: Direct Peptide Reactivity Assay (DPRA, OECD 442C). The conditions noted are these: for DPRA Prediction: cysteine 1:10/lysine 1:50 prediction model.
Procedure: The direct peptide reactivity assay (DPRA) is an in chemico method which quantified the remaining concentration of cysteine- or lysine-containing peptide after 24 h incubation with the test chemical at 25 °C. Relative peptide concentration was measured by HPLC (Waters, Milford, MA, USA) with gradient elution and UV detection (220 nm). […] This model allowed to classify the test chemical to one of four reactivity classes used to support the discrimination between sensitisers and non-sensitisers.
The test system of series [2] is Raw264.7 macrophage cells. It counts as cell-based. The note with it: 1 µM. On the procedure:
In this experiment, macrophage (Raw264.7) cells were seeded in 96-well plates (5 × 10^5 cells/mL) and allowed to attach overnight. After attachment, cells were incubated with various concentrations of CPPAIF for 1 h and followed by stimulation with 1 μg/mL of LPS (lipopolysaccharide). No LPS-added cells were considered as control groups. After incubation, the amount of TNF-α and IL-6 in the medium were analyzed by enzyme linked immunosorbent assay (# KHC3011 and #EH2IL6, Thermo Fisher, Waltham, MA, USA). Cell viability was measured by AlamarBlue cell viability assay (BUF012B, Bio-Rad, Hercules, CA, USA).
Figure 5 Anti-inflammation activity of CPPAIF. Raw264.7 macrophage cells were seeded in 96-well plates (5 × 10^5 cells/mL) and allowed to attach overnight. After attachment, the cells were incubated with various concentrations of CPPAIF for 1 h followed by stimulation with 1 μg/mL of LPS. The control group was not treated with LPS and its cytokine secretion was set as 100% (mock). The amounts of TNFα (A) and IL-6 (B) in the medium were analyzed by ELISA. Cell viability was measured by AlamarBlue cell viability assay. *** p < 0.001 versus the control group.

The test system of a further series is RBL-2H3 mast cells. Nature of the series: Mast cell degranulation assay (β-hexosaminidase release). It is filed as cell-based, rat. The conditions noted are these: under 10 μM (0, 0.1, 1, 2, 5, 10 μM); PC A23187 set as 100%. The procedure:
Inhibitory effects on release of β-hexosaminidase in RBL-2H3 (rat-basophilic leukemia cell line) were evaluated by a cell degranulation assay. Briefly, 0.2 mL of 5 × 10^5 cells/mL RBL-2H3 cells were seed in 24-well plates (in Minimum Essential Medium (MEM) containing 10% Fetal Bovine Serum (FBS), streptomycin (100 µg/mL) and penicillin (100 units/mL)) and sensitized with anti-DNP IgE (0.45 µg/mL). These cells were washed with Siraganian buffer (5 mM KCl, 0.4 mM MgCl2, 119 mM NaCl, 25 mM piperazine-N,N 2-bis(2-ethane sulfonic acid (PIPES), and 40 mM NaOH, pH 7.2) with glucose, 1 mM CaCl2, and 0.1% bovine serum albumin (BSA). After washing, these cell were incubated in 160 µL of the PBS for 10 min at 37 °C and then 20 µL of test sample solution or calcimycin (final 1 mM) was added and further incubated for 10 min. The plate was cooling on ice for 10 min to stop reaction. 50 µL of supernatant was transferred to 96-well plate and added with 50 µL of substrate (1 mM p-nitrophenyl N-acetyl-β-D-glucosaminide) in 0.1 M citrate buffer (pH 4.5) at 37 °C for 2.5 h. The reaction was stopped by adding 200 µL of carbonate-bicarbonate buffer (0.1 M, pH 10.0). The value of A405 was measured with a microplate reader.
Figure 6 Sensitization test of CPPAIF. The sensitization of CPPAIF was evaluated by mast cell degranulation assay. […]

The subject of series [3] is 3D human epidermis tissue model (SkinEthic RHE). Nature of the series: Transepidermal measurement by reconstructed human epidermis tissue model. It counts as in vitro ADME. The conditions noted are these: 100 μL containing 100 μM CPPAIF, of exposure (method and legend: 1 h), HPLC, mean ± SD of three. The procedure:
3D human epidermis tissue model (SkinEthic™ RHE, SkinEthics, Lyon, France) and two kinds of CPPAIF-containing emulsion systems (water-in-oil emulsion (W/O) and oil-in-water emulsion (O/W)) were prepared for the transepidermal measurements. […] After treatment liquid beneath the model was collected for HPLC quantification. Transepidermal rate was calculated by measuring the amount of CPPAIF in medium beneath the 3D model by HPLC ((concentration of the beneath liquid/concentration of the topical exposure) × 100).
Figure 8 Transepidermal degree of formulated CPPAIF in SkinEthic^TM RHE model. All 3D reconstructed human epidermis tissues were incubated with growth medium for 2 h, then 0.1 mL formulated CPPAIF (0.1 mM) emulsions were added to the top of the tissues and incubated for 1 h. After treatment the liquid beneath the 3D skin model was collected for HPLC quantification. Transepidermal degree was calculated by measuring the amount of CPPAIF in the liquid beneath the 3D skin model using HPLC. ** p < 0.01 versus the W/O formulation group.

The nature of series [4]: Stability of CPPAIF in W/O and O/W emulsions (HPLC). It is filed as physicochemical. The note with it: 0.1 mM CPPAIF.
Series [5] has as its system SkinEthic RHE 3D reconstructed human epidermis tissue model. Nature of the series: In vitro skin irritation test (OECD 439). The conditions noted are these: 1 mM.
Another series concerns HaCaT cells. As to the kind of experiment: Internalization of TMR-CPPAIF in human keratinocytes (confocal microscopy). The note with it: 20 µM, 37 °C, 30 min, confocal laser-scanning microscopy. It is filed as cell-based. The procedure: Confocal Laser-scanning Microscopy (CLSM, Zeiss Cell Observer-Z1, Baden-Württemberg, Germany) was performed to assess distribution of TMR-labeled CPPAIF (tetramethylrhodamine-[…], synthesized by Kelowna International Scientific, Taipei, Taiwan) in human keratinocytes, HaCaT. First, apply a layer of type I collagen on a glass cover slip, dry and sterilize the cover slip with UV light. Then, culture the HaCaT cells ([…] per slip) on the coverslip for 16 h. The attached HaCaT cells were cultured with 20 μM of the TMR- CPPAIF for 30 min, observed with CLSM (63× oil-immersion objective lens), and photographed under same exposure conditions.
Figure 7 Internalization of TMR-CPPAIF. HaCaT cells (1 × 10^3) were seeded on collagen I coated cover slide and incubated at 37 °C for 16 h. The cells were then incubatd with 20 μM of TMR-CPPAIF at 37 °C for 30 min. After washing and fixing, the cells were mounted and monitored by confocal microscopy. Red: TMR; Blue: nuclear staining with DAPI. (Magnification: 63×).

Where [6] appears, read: test item 100 mM, 24 h, 25 °C, HPLC, UV 220 nm.

Where no end group is shown, it is not given here.

For the compound `OCCOc1ccccc1` [Phenoxyethanol, phenoxyethanol], in series [1] (setting [6]), the “Cysteine Depletion” value turned out to be 1.38%; the “Lysine Depletion” value was −0.25%; the “Mean of Cysteine and Lysine % Depletion” value was 0.56%. In series [1] (test item 100 mM), the “DPRA Prediction” value was “Non-sensitiser”.
Consider NYRWRCKNQN [CPPAIF], for which the cell viability in series [2] was determined as 85.2 ± 4.25%. For the same compound, the “mast cell degranulation release (β-hexosaminidase)” value in the series on RBL-2H3 mast cells was “did not induce any mast cell degranulation release”. Also, the “Transepidermal degree ((concentration in the beneath liquid/concentration in the topical exposure) × 100)” value was determined as 28.4 ± 1.7% in series [3] (O/W formulation) and 41.4 ± 3.6% in series [3] (W/O formulation). The “stability of CPPAIF in emulsion compositions” value in series [4] was “did not influence stability”. In addition, the “skin irritation classification of OECD 439” value in series [5] is reported as “did not cause skin irritation (no category)”. Moreover, the “DPRA Prediction” value in series [1] (test item 0.1 mM) was “Non-sensitiser”.
As to “tetramethylrhodamine-NYRWRCKNQN [TMR-CPPAIF, tetramethylrhodamine-labeled CPPAIF]”, the “internalization into cells (TMR signal)” value in the series on HaCaT cells was “internalized into the cells”.

The values above are taken from PMC7023394, “Cell Penetrating Peptide as a High Safety Anti-Inflammation Ingredient for Cosmetic Applications” (Biomolecules, 2020).
